# Like-named read-outs stand apart in the source and are kept apart here.
# System: PKMYT1 (CDK1 pThr14) in FUOV1 cells
# Assay: PKMYT1 cell-based activity assay, CDK1 pThr14 AlphaLISA in FUOV1 cells
# Settings: read-out: FUOV-1 CDK1 pThr14 IC50
# Outline: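 FUOV1 cells were treated with PKMYT1 inhibitor for 2 h at 37 °C, then lysed. CDK1 pThr14 was measured by AlphaLISA, pairing an anti-pThr14 antibody with an anti-total CDK1 antibody (5 nM each). Signal read at 680/615 nm and used to derive IC50.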
Structure (SMILES),"IC50 (2 h, 2 h compound incubation)","IC50 (2 h, 2 hours with compound)",further results
Cc1ccc2[nH]ncc2c1-c1nc(-c2ccc(Cl)cc2Nc2ncccn2)nc(C(N)=O)c1N [Compound 654],77 nM,–,–
Cc1ccc2[nH]ncc2c1-c1nc(-c2cc(F)cnc2N[C@@H]2COC[C@@H]2O)nc(C(N)=O)c1N [Compound 814],–,71 nM,–
"Cc1ccc2[nH]ncc2c1-c1nc(-c2ccnnc2Nc2ncccc2F)nc(C(N)=O)c1N [Compound 886, 5-amino-2-(3-((3-fluoropyridin-2-yl)amino)pyridazin-4-yl)-6-(5-methyl-1H-indazol-4-yl)pyrimidine-4-carboxamide]",–,37 nM,–
Cc1ccc2[nH]ncc2c1-c1nc(-c2ccc(Cl)nc2Nc2cccnn2)nc(C(N)=O)c1N [Compound 832],–,217 nM,–
COc1cccc(Nc2ncccc2-c2nc(C(N)=O)c(N)c(-c3c(C)ccc4[nH]ncc34)n2)c1 [Compound 656],527 nM,–,–
Cc1ccc2[nH]ncc2c1-c1nc(-c2ccc(F)cc2Nc2cncnc2C(=N)N)nc(C(N)=O)c1N [Compound 694],423 nM,–,–
"Cc1ccc2[nH]ncc2c1-c1nc(-c2cn(C)nc2Nc2ccccn2)nc(C(N)=O)c1N [Compound 916, 5-amino-6-(5-methyl-1H-indazol-4-yl)-2-(1-methyl-3-(pyridin-2-ylamino)-1H-pyrazol-4-yl)pyrimidine-4-carboxamide]",–,926 nM,–
Cc1ccc2[nH]ncc2c1-c1nc(-c2cc(F)cnc2NCC2(C#N)CC2)nc(C(N)=O)c1N [Compound 705],33 nM,–,–
Cc1ccc2[nH]ncc2c1-c1nc(-c2cccnc2Nc2ncccc2F)cc(C(N)=O)c1N [Compound 846],–,12 nM,–
Cc1ccc2[nH]ncc2c1-c1nc(-c2cccnc2Nc2cncc(F)n2)nc(C(N)=O)c1N [Compound 753],59 nM,–,–
[2H]C([2H])([2H])c1ccc2[nH]ncc2c1-c1nc(-c2ccc(F)nc2Nc2ncccc2F)nc(C(N)=O)c1N [Compound 930],–,5 nM,–
NC(=O)c1nc(-c2cccnc2NC2CC2)nc(-c2c(Cl)cc(F)c3[nH]ncc23)c1N [Compound 967],–,212 nM,–
Cc1ccc2[nH]ncc2c1-c1nc(-c2cc(F)cnc2N[C@H]2CC[C@@](C)(O)CC2)nc(C(N)=O)c1N [Compound 723],22 nM,–,–
Cc1ccc(-c2nc(C(N)=O)c(N)c(-c3c(C)ccc4[nH]ncc34)n2)c(Nc2nnccc2C)n1 [Compound 628],41 nM,–,–
Cc1ccc2[nH]ncc2c1-c1nc(-c2cc(F)c(C#N)cc2Nc2ncccn2)nc(C(N)=O)c1N [Compound 761],75 nM,–,–
CO[C@H]1C[C@@H](Nc2ncccc2-c2nc(C(N)=O)c(N)c(-c3c(C)ccc4[nH]ncc34)n2)C1 [Compound 548],227 nM,–,–
Cc1ccc2[nH]ncc2c1-c1nc(-c2cc(F)cnc2N[C@H]2C[C@](C)(O)C2)nc(C(N)=O)c1N [Compound 748],40 nM,–,–
CCc1ccccc1-c1nc(C(N)=O)c(N)c(-c2c(C)ccc3[nH]ncc23)n1 [Compound 778],1260 nM,–,–
Cn1cc(-c2nc(C(N)=O)c(N)c(-c3c(Cl)ccc4[nH]ncc34)n2)c(NC2CCOCC2)n1 [Compound 915],–,164 nM,–
Cc1ccc2[nH]ncc2c1-c1nc(-c2ccc(F)cc2Nc2ccncc2C#N)nc(C(N)=O)c1N [Compound 590],8 nM,–,–
Cc1ccc2[nH]ncc2c1-c1nc(-c2cccnc2NC[C@H]2CCCOC2)nc(C(N)=O)c1N [Compound 667],42 nM,–,–
Cc1ccc2[nH]ncc2c1-c1nc(-c2cccnc2Nc2ncccc2C(F)(F)F)nc(C(N)=O)c1N [Compound 767],11 nM,–,–

Structure (SMILES),"IC50 (2 h, 2 h compound incubation)","IC50 (2 h, 2 hours with compound)",further results
Cc1ccc2[nH]ncc2c1-c1nc(-c2cccnc2Nc2nc(F)ccc2Cl)nc(C(N)=O)c1N [Compound 752],2 nM,–,–
Cc1ccc2[nH]ncc2c1-c1nc(-c2ccc(F)cc2N[C@H]2C[C@@H](O)C2)nc(C(N)=O)c1N [Compound 860],–,232 nM,–
Cc1ccc2[nH]ncc2c1-c1nc(-c2cccnc2Nc2ncccc2CC#N)nc(C(N)=O)c1N [Compound 741],155 nM,–,–
"COc1cc(-c2nc(C(N)=O)c(N)c(-c3c(C)ccc4[nH]ncc34)n2)c(Nc2ncccc2F)cn1 [Compound 976, 5-amino-2-(5-((3-fluoropyridin-2-yl)amino)-2-methoxypyridin-4-yl)-6-(5-methyl-1H-indazol-4-yl)pyrimidine-4-carboxamide]",–,22 nM,–
NC(=O)c1nc(-c2cccnc2NC2CC2)nc(-c2c(Cl)ccc3[nH]ncc23)c1N [Compound 919],–,92 nM,–
Cc1ccc2[nH]ncc2c1-c1nc(-c2ccc(F)cc2Nc2ccncc2)nc(C(N)=O)c1N [Compound 533],3 nM,–,–
Cc1ccc2[nH]ncc2c1-c1cc2c(oc3ccc(O[C@H]4CCOC4)nc32)c(C(N)=O)c1N [Compound 574],1330 nM,–,–
Cc1ccc2[nH]ncc2c1-c1nc(-c2ccc(C#N)cc2N[C@H]2C[C@](C)(O)C2)nc(C(N)=O)c1N [Compound 821],–,71 nM,–
Cc1ccc(-c2nc(C(N)=O)c(N)c(-c3c(C)ccc4[nH]ncc34)n2)c(Nc2cncc(Cl)n2)n1 [Compound 725],474 nM,–,–
Cc1ccc2[nH]ncc2c1-c1nc(-c2cccnc2Nc2cncnc2C)nc(C(N)=O)c1N [Compound 717],216 nM,–,–
Cc1ccc(Cl)nc1Nc1nc(F)ccc1-c1nc(C(N)=O)c(N)c(-c2c(C)ccc3[nH]ncc23)n1 [Compound 943],–,22 nM,–
Cc1ccc2[nH]ncc2c1-c1nc(-c2cn(C)nc2Nc2ncccc2F)nc(C(N)=O)c1N [Compound 925],–,129 nM,–
Cc1ccc2[nH]ncc2c1-c1nc(-c2ccc(C#N)cc2Nc2nccnc2C)nc(C(N)=O)c1N [Compound 751],14 nM,–,–
Cc1ccc2[nH]ncc2c1-c1nc(-c2cccnc2N[C@H]2[C@@H]3COC[C@@H]32)nc(C(N)=O)c1N [Compound 545],43 nM,–,–
COc1ccc(F)c(Nc2nc(F)ccc2-c2nc(C(N)=O)c(N)c(-c3c(C)ccc4[nH]ncc34)n2)n1 [Compound 922],–,34 nM,–
Cc1ccc2[nH]ncc2c1-c1nc(-c2cccnc2Nc2nccnc2C)nc(C(N)=O)c1N [Compound 728],56 nM,–,–
Cc1ccc2[nH]ncc2c1-c1nc(-c2cc(F)c(F)cc2NC2CC(C)(C)NC(C)(C)C2)nc(C(N)=O)c1N [Compound 502],871 nM,–,–
Cc1ccc(F)c(Nc2ncccc2-c2nc(C(N)=O)c(N)c(-c3c(C)cc(F)c4[nH]ncc34)n2)n1 [Compound 773],6 nM,–,–
Cc1cc(Nc2cc(F)ccc2-c2nc(C(N)=O)c(N)c(-c3c(C)ccc4[nH]ncc34)n2)ccn1 [Compound 564],15 nM,–,–
"Cc1ccc2[nH]ncc2c1-c1nc(-c2cc(F)cnc2N[C@H]2C[C@@](C)(O)C2)nc(C(N)=O)c1N [Compound 733, 5-amino-2-(5-fluoro-2-(((1s,3s)-3-hydroxy-3-methylcyclobutyl)amino)pyridin-3-yl)-6-(5-methyl-1H-indazol-4-yl)pyrimidine-4-carboxamide]",48 nM,–,–
Cc1ccc2[nH]ncc2c1-c1nc(-c2cccnc2NC2CCN(C)C2=O)nc(C(N)=O)c1N (stereo not shown) [Compound 561],426 nM,–,–
Cc1ccc2[nH]ncc2c1-c1nc(-c2cccnc2NC[C@H]2CCOC2)nc(C(N)=O)c1N [Compound 594],36 nM,–,–

Structure (SMILES),"IC50 (2 h, 2 h compound incubation)","IC50 (2 h, 2 hours with compound)",further results
NC(=O)c1nc(-c2cccnc2NC2CC2)nc(-c2c(F)ccc3[nH]ncc23)c1N [Compound 933],–,65 nM,–
Cc1ccc2[nH]ncc2c1-c1nc(-c2cc(F)cnc2NC2CC(C)(C)C2)nc(C(N)=O)c1N [Compound 732],534 nM,–,–
[2H]C([2H])([2H])c1ccc(-c2nc(C(N)=O)c(N)c(-c3c(C([2H])([2H])[2H])ccc4[nH]ncc34)n2)c(Nc2ncccn2)n1 [Compound 960],–,40 nM,–
Cc1ccc2[nH]ncc2c1-c1nc(-c2cccnc2Nc2cccc(Cl)c2)nc(C(N)=O)c1N [Compound 638],707 nM,–,–
Cc1ccc(C#N)nc1Nc1ncccc1-c1nc(C(N)=O)c(N)c(-c2c(C)ccc3[nH]ncc23)n1 [Compound 740],7 nM,–,–
Cc1ccc2[nH]ncc2c1-c1nc(-c2ccc(C#N)nc2NC2CC(F)(F)C2)nc(C(N)=O)c1N [Compound 809],–,272 nM,–
Cc1c(F)cc2[nH]ncc2c1-c1nc(-c2cccnc2NCC(F)(F)F)nc(C(N)=O)c1N [Compound 849],–,174 nM,–
Cc1ccc2[nH]ncc2c1-c1nc(-c2cccnc2NC2CCSCC2)nc(C(N)=O)c1N [Compound 597],49 nM,–,–
Cc1ccc2[nH]ncc2c1-c1nc(-c2cc(F)ccc2Nc2cccnn2)nc(C(N)=O)c1N [Compound 489],22 nM,–,–
Cc1ccc2[nH]ncc2c1-c1nc(-c2cc(F)cnc2N[C@H]2CC[C@H](C(C)(C)O)CC2)nc(C(N)=O)c1N [Compound 757],199 nM,–,–
Cc1ccc2[nH]ncc2c1-c1nc(-c2cccnc2N[C@H]2CCOC2)nc(C(N)=O)c1N [Compound 550],7 nM,–,–
Cc1ccc2[nH]ncc2c1-c1nc(-c2cc(F)cnc2NC2CCOCC2)nc(C(N)=O)c1N [Compound 686],10 nM,–,–
N#Cc1ccc(-c2nc(C(N)=O)c(N)c(-c3c(Cl)ccc4[nH]ncc34)n2)c(Nc2ncccn2)c1 [Compound 958],–,32 nM,–
Cc1ccc2[nH]ncc2c1-c1nc(-c2cc(F)cnc2N[C@H]2CC[C@](C)(O)CC2)nc(C(N)=O)c1N [Compound 722],232 nM,–,–
Cc1ccc2[nH]ncc2c1-c1nc(-c2ccc(C(F)(F)F)nc2Nc2nccnc2Cl)nc(C(N)=O)c1N [Compound 771],96 nM,–,–
Cc1ccc2[nH]ncc2c1-c1nc(-c2cc(F)cnc2N[C@@H]2C[C@H]3CC[C@@H]2O3)nc(C(N)=O)c1N [Compound 898],–,–,IC50 (2 hours with compound): 76 nM
Cc1ccc2[nH]ncc2c1-c1nc(-c2ccc(F)cc2Nc2ccnc(C(F)(F)F)c2)nc(C(N)=O)c1N [Compound 585],127 nM,–,–
Cc1ccc2[nH]ncc2c1-c1nc(-c2cc(F)ccc2Nc2cnccn2)nc(C(N)=O)c1N [Compound 490],51 nM,–,–
Cc1ccc2[nH]ncc2c1-c1nc(-c2cccnc2N[C@H]2C[C@@](C)(O)C2)nc(C(N)=O)c1N [Compound 918],–,47 nM,–
Cc1ccc2[nH]ncc2c1-c1nc(-c2cc(C#N)ccc2Nc2ncccn2)nc(C(N)=O)c1N [Compound 789],43 nM,–,–
